According to patent publication US9125857B2, “Method for producing a drug extract that contains hydroxystilbene” (priority 2005, dated 2015):

What was measured:
[1] = Dissolving tests with ERr 731 dry extract in ethanol and glycerol; format: physicochemical; details: for dissolved proportion, % of theory, Test B / content found in solution, Test B: 200 mg of dry extract in 50 ml of ethanol 30% R; for content found in solution, Test B / content found in solution, Test C / content found in solution, Test D / content found in solution, Test A: extract content 61.9% rhaponticin, 29.9% deoxyrhaponticin; for dissolved proportion, % of theory, Test C / content found in solution, Test C: 200 mg of dry extract in 50 ml of ethanol 50% R; for dissolved proportion, % of theory, Test D / content found in solution, Test D: 200 mg of dry extract in 50 ml of ethanol 86% R; for dissolved proportion, % of theory, Test A / content found in solution, Test A: 200 mg of dry extract in 50 ml of glycerol R
Procedure: Determination of Stilbenes by High-Pressure Liquid Chromatography (HPLC) in the Dry Extract from Rhapontic Rhubarb Root
50 mg of extract, mixed with 40 ml of a mixture of acetone and water (1:1) in an amber glass vessel, treated in an ultrasonic bath for 15 minutes and made up to 50 ml with the solvent mixture and then diluted 1:10 with the solvent mixture.
A high-pressure liquid chromatography (HPLC) is carried out on a portion of the solution obtained above, with the following system parameters:
For a quantitative determination, the respective peak areas are found and compared with the corresponding peak areas of a standard extract of known composition.
a) Dissolving Tests with ERr 731® in Ethanol and Glycerol:
Content of the extract: • 61.9% rhaponticin • 29.9% deoxyrphaponticin

[2] = pH-dependent solubility of rhaponticin in aqueous solutions; format: physicochemical
Text: Use is made of this for its isolation. Since, besides other organic acids, the root in particular has a high content of oxalic acid (⅔ in water-soluble and ⅓ in bound form), this must be neutralized during the isolation in order to prevent the pH drifting into the acidic range and thus to inhibit premature precipitation of the rhaponticin. This is achieved by using calcium oxide. The latter is employed as quicklime solution with a pH of 12.4-12.6.

Row | dissolved proportion, % of theory, Test B [1] | content found in solution, Test B [1] | dissolved proportion, % of theory, Test C [1] | content found in solution, Test C [1] | dissolved proportion, % of theory, Test D [1] | content found in solution, Test D [1] | dissolved proportion, % of theory, Test A [1] | content found in solution, Test A [1] | solubility in aqueous solutions ([2]; acidic pH range (pH 3.4-3.6)) | solubility in aqueous solutions ([2]; alkaline pH range) | SMILES
1 | (84.2% of theory) | 25.2% deoxyrhaponticin | (97.0% of theory) | 29.0% deoxyrhaponticin | (98.7% of theory) | 29.5% deoxyrhaponticin | (90.6% of theory) | 27.1% deoxyrhaponticin |  |  | COc1ccc(C=Cc2cc(O)cc(O[C@@H]3O[C@H](CO)[C@@H](O)[C@H](O)[C@H]3O)c2)cc1 [deoxyrhaponticin]
2 | (84.3% of theory) | 52.2% rhaponticin | (95.0% of theory) | 58.8% rhaponticin | (96.6% of theory) | 59.8% rhaponticin | (89.0% of theory) | 55.1% rhaponticin | precipitated | readily soluble | COc1ccc(C=Cc2cc(O)cc(O[C@@H]3O[C@H](CO)[C@@H](O)[C@H](O)[C@H]3O)c2)cc1O [rhaponticin, 3,3′,5-Trihydroxy-4′-methoxystilbene-3-O-β-D-glucopyranoside]
